Starred links: 1 amine or outer side, 2 acyl side, 3 side chain; linkers in the order of their positions; H or OH if unused. Positions of bridges follow the written chain, without caps; N, C: chain ends. Non-standard residues stand in square brackets, D forms with d. Residues, ends and D or L forms follow the SMILES beside them. *: point of attachment. Trp(7-(3-AcNH-Ph)) = CC(=O)Nc1cccc(-c2cccc3c(C[C@H](N)C(=O)O)c[nH]c23)c1; X64 = C[N+]1(C)CCN(c2ccc(C[C@H](N[*:1])C(=O)[*:2])cc2)CC1; Me3N+(CH2)2O(CH2)2O(CH2)2CO = C[N+](C)(C)CCOCCOCCC(=O)*; Trp(7-Me) = Cc1cccc2c(C[C@H](N)C(=O)O)c[nH]c12; X28 = CCCCCCCCCCCCCCCC[N+](C)(C)CCc1cn(CC*)nn1; X47 = C[N+]1(C)CC[N+]2(CCN(CC*)CC2)CC1; 2Nal = N[C@@H](Cc1ccc2ccccc2c1)C(=O)O; X45 = COCC[N+](C)(C)CCc1cn(CC*)nn1; 3Pal = N[C@@H](Cc1cccnc1)C(=O)O; X14 = C[N+](C)(C)CCc1cn(CC*)nn1; Lys(Me) = CNCCCC[C@H](N)C(=O)O; Pen = CC(C)(S)[C@H](N)C(=O)O; X38 = C[N+](C)(C)CCCCCC*; Thp = NC1(C(=O)O)CCOCC1; X3 = C[N+](C)(C)CCCCC*; Sar = CNCC(=O)O
How the values were obtained:
[1] = Exposed Polar Surface Area (EPSA); format: physicochemical; settings: SFC on Chirex 3014 column; sample 1 mM DMSO stock; read-out: EPSA
In short: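 Polarity measured by SFC on a Chirex 3014 column (35 °C, 4 mL/min) with methanol/ammonium formate in CO2 as gradient eluent. Retention times were normalised to EPSA (Å^2) against eight reference compounds.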

IL-23R = target: T1, IL-23R (Homo sapiens, UniProt Q5VWK5); assay: IL23R Reporter Assay; format: cell-based; settings: HEK293 cells containing IL-23R, IL-12RP1 and STAT-inducible firefly luciferase reporter; 10 ng/mL IL-23 (EC90); 5 h at 37° C.; read-out: IL23R Reporter Assay
T1 construct: host or cells: HEK293
T1 sequence (Q5VWK5 24-629): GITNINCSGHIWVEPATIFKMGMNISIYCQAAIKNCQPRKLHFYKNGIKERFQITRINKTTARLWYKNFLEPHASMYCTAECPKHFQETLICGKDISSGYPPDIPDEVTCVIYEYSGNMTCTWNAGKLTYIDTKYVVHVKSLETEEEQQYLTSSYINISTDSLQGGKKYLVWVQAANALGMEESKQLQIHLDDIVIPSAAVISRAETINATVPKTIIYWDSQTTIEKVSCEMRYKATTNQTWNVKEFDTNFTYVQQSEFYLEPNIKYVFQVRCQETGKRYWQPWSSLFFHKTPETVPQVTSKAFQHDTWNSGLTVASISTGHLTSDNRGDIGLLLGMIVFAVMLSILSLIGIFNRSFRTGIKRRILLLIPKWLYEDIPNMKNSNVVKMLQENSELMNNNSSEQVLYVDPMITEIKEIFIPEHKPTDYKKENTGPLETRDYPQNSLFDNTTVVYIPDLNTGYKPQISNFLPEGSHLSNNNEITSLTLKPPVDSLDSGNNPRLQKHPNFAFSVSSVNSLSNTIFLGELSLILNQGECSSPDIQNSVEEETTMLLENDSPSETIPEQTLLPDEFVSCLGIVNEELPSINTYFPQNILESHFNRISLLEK

Structure (SMILES) | EPSA [1] | IC50 (IL-23R)
CC(=O)N(C)CCCC[C@@H]1NC(=O)[C@H](Cc2c[nH]c3c(C)cccc23)NC(=O)[C@H]([C@@H](C)O)NC(=O)[C@H](CC(=O)N(C)C)NC(=O)[C@@H](NC(=O)CCOCCOCC[N+](C)(C)C)C(C)(C)SSC(C)(C)[C@@H](C(=O)N[C@@H](Cc2ccc(OCCN3CC[N+]4(CC3)CC[N+](C)(C)CC4)cc2)C(=O)N[C@@H](Cc2ccc3ccccc3c2)C(=O)NC2(C(=O)N[C@@H](CCCCN(C)C(C)=O)C(=O)N[C@@H](CC(N)=O)C(=O)N[C@@H](Cc3cccnc3)C(=O)N(C)CC(=O)N(C)C)CCOCC2)NC1=O [compound 269, cPEG3aCO-Pen(3)-N(N(Me)2)-T-7MeW-K(NMeAc)-Pen(3)-DMTASF-2Nal-THP-K(NMeAc)-N-3Pya-Sar-CON(Me)2] ({Me3N+(CH2)2O(CH2)2O(CH2)2CO}-[Pen]D(NMe2)T[Trp(7-Me)][Lys(Me)](Ac)[Pen]Y(X47)[2Nal][Thp][Lys(Me)](Ac)N[3Pal][Sar]-NMe2; disulfide 1-6) | 167 A^2 | 1.4 nM
CC(=O)N(C)CCCC[C@@H]1NC(=O)[C@H](Cc2c[nH]c3c(C)cccc23)NC(=O)[C@H]([C@@H](C)O)NC(=O)[C@H](CC(=O)N(C)C)NC(=O)[C@@H](NC(=O)CCOCCOCC[N+](C)(C)C)C(C)(C)SSC(C)(C)[C@@H](C(=O)N[C@@H](Cc2ccc(N3CC[N+](C)(C)CC3)cc2)C(=O)N[C@@H](Cc2ccc3ccccc3c2)C(=O)NC2(C(=O)N[C@@H](CCCCN(C)C(C)=O)C(=O)N[C@@H](CC(N)=O)C(=O)N[C@@H](Cc3cccnc3)C(=O)N(C)CC(=O)N(C)C)CCOCC2)NC1=O [compound 273, cPEG3aCO-Pen(3)-N(N(Me)2)-T-7MeW-K(NMeAc)-Pen(3)-PiperazinequatF-2Nal-THP-K(NMeAc)-N-3Pya-Sar-CON(Me)2] ({Me3N+(CH2)2O(CH2)2O(CH2)2CO}-[Pen]D(NMe2)T[Trp(7-Me)][Lys(Me)](Ac)[Pen][X64][2Nal][Thp][Lys(Me)](Ac)N[3Pal][Sar]-NMe2; disulfide 1-6) | 157 A^2 | 2.6 nM
COCC[N+](C)(C)CCc1cn(CCOc2ccc(C[C@H](NC(=O)[C@H]3NC(=O)[C@H](CCCCN(C)C(C)=O)NC(=O)[C@H](Cc4c[nH]c5c(C)cccc45)NC(=O)[C@H]([C@@H](C)O)NC(=O)[C@H](CC(=O)N(C)C)NC(=O)[C@@H](NC(=O)CCOCCOCC[N+](C)(C)C)C(C)(C)SSC3(C)C)C(=O)N[C@@H](Cc3ccc4ccccc4c3)C(=O)NC3(C(=O)N[C@@H](CCCCN(C)C(C)=O)C(=O)N[C@@H](CC(N)=O)C(=O)N[C@@H](Cc4cccnc4)C(=O)N(C)CC(=O)N(C)C)CCOCC3)cc2)nn1 [compound 285, cPEG3aCO-Pen(3)-N(N(Me)2)-T-7MeW-K(NMeAc)-Pen(3)-Y(OTzlChmPEG)-2Nal-THP-K(NMeAc)-N-3Pya-Sar-CON(Me)2] ({Me3N+(CH2)2O(CH2)2O(CH2)2CO}-[Pen]D(NMe2)T[Trp(7-Me)][Lys(Me)](Ac)[Pen]Y(X45)[2Nal][Thp][Lys(Me)](Ac)N[3Pal][Sar]-NMe2; disulfide 1-6) | 148 A^2 | 3.8 nM
CC(=O)N(C)CCCC[C@@H]1NC(=O)[C@H](Cc2c[nH]c3c(C)cccc23)NC(=O)[C@H]([C@@H](C)O)NC(=O)[C@H](CC(=O)N(C)C)NC(=O)[C@@H](NC(=O)CCOCCOCC[N+](C)(C)C)C(C)(C)SSC(C)(C)[C@@H](C(=O)N[C@@H](Cc2ccc(OCCn3cc(CC[N+](C)(C)C)nn3)cc2)C(=O)N[C@@H](Cc2ccc3ccccc3c2)C(=O)NC2(C(=O)N[C@@H](CCCCN(C)C(C)=O)C(=O)N[C@@H](CC(N)=O)C(=O)N[C@@H](Cc3cccnc3)C(=O)N(C)CC(=O)N(C)C)CCOCC2)NC1=O [compound 286, cPEG3aCO-Pen(3)-N(N(Me)2)-T-7MeW-K(NMeAc)-Pen(3)-Y(OTzlCh)-2Nal-THP-K(NMeAc)-N-3Pya-Sar-CON(Me)2] ({Me3N+(CH2)2O(CH2)2O(CH2)2CO}-[Pen]D(NMe2)T[Trp(7-Me)][Lys(Me)](Ac)[Pen]Y(X14)[2Nal][Thp][Lys(Me)](Ac)N[3Pal][Sar]-NMe2; disulfide 1-6) | 149 A^2 | 3.2 nM
COCC[N+](C)(C)CCc1cn(C[C@H](NC(=O)[C@H]2NC(=O)[C@H](CCCCN(C)C(C)=O)NC(=O)[C@H](Cc3c[nH]c4c(C)cccc34)NC(=O)[C@H]([C@@H](C)O)NC(=O)[C@H](CC(=O)N(C)C)NC(=O)[C@@H](NC(=O)CCOCCOCC[N+](C)(C)C)C(C)(C)SSC2(C)C)C(=O)N[C@@H](Cc2ccc3ccccc3c2)C(=O)NC2(C(=O)N[C@@H](CCCCN(C)C(C)=O)C(=O)N[C@@H](CC(N)=O)C(=O)N[C@@H](Cc3cccnc3)C(=O)N(C)CC(=O)N(C)C)CCOCC2)nn1 [compound 288, cPEG3aCO-Pen(3)-N(N(Me)2)-T-7MeW-K(NMeAc)-Pen(3)-TzlChmPEG-2Nal-THP-K(NMeAc)-N-3Pya-Sar-CON(Me)2] | 144 A^2 | 24 nM
COCCOCCOCC[N+](C)(C)CCc1cn(C[C@H](NC(=O)[C@H]2NC(=O)[C@H](CCCCN(C)C(C)=O)NC(=O)[C@H](Cc3c[nH]c4c(C)cccc34)NC(=O)[C@H]([C@@H](C)O)NC(=O)[C@H](CC(=O)N(C)C)NC(=O)[C@@H](NC(=O)CCOCCOCC[N+](C)(C)C)C(C)(C)SSC2(C)C)C(=O)N[C@@H](Cc2ccc3ccccc3c2)C(=O)NC2(C(=O)N[C@@H](CCCCN(C)C(C)=O)C(=O)N[C@@H](CC(N)=O)C(=O)N[C@@H](Cc3cccnc3)C(=O)N(C)CC(=O)N(C)C)CCOCC2)nn1 [compound 289, cPEG3aCO-Pen(3)-N(N(Me)2)-T-7MeW-K(NMeAc)-Pen(3)-TzlChmPEG3-2Nal-THP-K(NMeAc)-N-3Pya-Sar-CON(Me)2] | 142 A^2 | 79 nM
CCCCCCCCCCCCCCCC[N+](C)(C)CCc1cn(CCOc2ccc(C[C@H](NC(=O)[C@H]3NC(=O)[C@H](CCCCN(C)C(C)=O)NC(=O)[C@H](Cc4c[nH]c5c(C)cccc45)NC(=O)[C@H]([C@@H](C)O)NC(=O)[C@H](CC(=O)N(C)C)NC(=O)[C@@H](NC(=O)CCOCCOCC[N+](C)(C)C)C(C)(C)SSC3(C)C)C(=O)N[C@@H](Cc3ccc4ccccc4c3)C(=O)NC3(C(=O)N[C@@H](CCCCN(C)C(C)=O)C(=O)N[C@@H](CC(N)=O)C(=O)N[C@@H](Cc4cccnc4)C(=O)N(C)CC(=O)N(C)C)CCOCC3)cc2)nn1 [compound 291, cPEG3aCO-Pen(3)-N(N(Me)2)-T-7MeW-K(NMeAc)-Pen(3)-Y(OTzlChC16)-2Nal-THP-K(NMeAc)-N-3Pya-Sar-CON(Me)2] ({Me3N+(CH2)2O(CH2)2O(CH2)2CO}-[Pen]D(NMe2)T[Trp(7-Me)][Lys(Me)](Ac)[Pen]Y(X28)[2Nal][Thp][Lys(Me)](Ac)N[3Pal][Sar]-NMe2; disulfide 1-6 (inferred)) | 137 A^2 | 610 nM
CC(=O)N(C)CCCC[C@@H]1NC(=O)[C@H](Cc2c[nH]c3c(C)cccc23)NC(=O)[C@H]([C@@H](C)O)NC(=O)[C@H](CC(=O)N(C)C)NC(=O)[C@@H](NC(=O)CCOCCOCC[N+](C)(C)C)C(C)(C)SSC(C)(C)[C@@H](C(=O)N[C@@H](Cc2ccc(OCCCCCC[N+](C)(C)C)cc2)C(=O)N[C@@H](Cc2ccc3ccccc3c2)C(=O)NC2(C(=O)N[C@@H](CCCCN(C)C(C)=O)C(=O)N[C@@H](CC(N)=O)C(=O)N[C@@H](Cc3cccnc3)C(=O)N(C)CC(=O)N(C)C)CCOCC2)NC1=O [compound 293, cPEG3aCO-Pen(3)-N(N(Me)2)-T-7MeW-K(NMeAc)-Pen(3)-TMA6F-2Nal-THP-K(NMeAc)-N-3Pya-Sar-CON(Me)2] ({Me3N+(CH2)2O(CH2)2O(CH2)2CO}-[Pen]D(NMe2)T[Trp(7-Me)][Lys(Me)](Ac)[Pen]Y(X38)[2Nal][Thp][Lys(Me)](Ac)N[3Pal][Sar]-NMe2; disulfide 1-6) | 149 A^2 | 3.2 nM
CC(=O)Nc1cccc(-c2cccc3c(C[C@@H]4NC(=O)[C@H]([C@@H](C)O)NC(=O)[C@H](CC(=O)N(C)C)NC(=O)[C@@H](NC(=O)CCOCCOCC[N+](C)(C)C)C(C)(C)SSC(C)(C)[C@@H](C(=O)N[C@@H](Cc5ccc(OCCCCC[N+](C)(C)C)cc5)C(=O)N[C@@H](Cc5ccc6ccccc6c5)C(=O)NC5(C(=O)N[C@@H](CCCCN(C)C(C)=O)C(=O)N[C@@H](CC(N)=O)C(=O)N[C@@H](Cc6cccnc6)C(=O)N(C)CC(=O)N(C)C)CCOCC5)NC(=O)[C@H](CCCCN(C)C(C)=O)NC4=O)c[nH]c23)c1 [compound 294, cPEG3aCO-Pen(3)-N(N(me)2)-T-7(3NAcPh)W-K(NMeAc)-Pen(3)-TMAPF-2Nal-THP-K(NMeAc)-N-3Pya-Sar-CON(Me)2] ({Me3N+(CH2)2O(CH2)2O(CH2)2CO}-[Pen]D(NMe2)T[Trp(7-(3-AcNH-Ph))][Lys(Me)](Ac)[Pen]Y(X3)[2Nal][Thp][Lys(Me)](Ac)N[3Pal][Sar]-NMe2; disulfide 1-6 (inferred)) | 157 A^2 | 1.2 nM
